Assay results as given in ChEMBL document CHEMBL5442168, “ASAP - In vitro liver microsomal stability” (2024).
“And” between values parts separate entries of the source, which are not always exact repeats. Equal entries are not always repeated.

What was measured:
[1] = (§1) Human liver microsomal stability of compound in microsomal protein, PBS buffer pH 7.4, NADPH, glucose-6-phosphate and glucose-6-phosphate dehydrogenase media. Aliquotes were taken at 5 time points and after stopping the reaction, supernatants were analyzed using HPLC coupled with a tandem mass spectrometer. The elimination constant, half-life, and intrinsic clearance are determined as results using linear regression analysis. The assay has been performed by Enamine biological services, Bienta Ltd.The protocol is publicly available: dx.doi.org/10.17504/protocols.io.5qpvokdb9l4o/v1; format: ADME, microsomes, Microsome; conditions: for half-life / microsomal CLint: liver microsomes; for Remaining / Remaining (without cofactor) / CLint / T1/2: microsomes
[2] = as §1, with “Mouse” for “Human”; format: ADME, microsomes, Microsome; conditions: for half-life / microsomal CLint: liver microsomes; for Remaining / Remaining (without cofactor) / CLint / T1/2: microsomes
Throughout, for Remaining (without cofactor): time not given here.
Throughout, for Remaining: time not given here.

Row | Structure (SMILES) | half-life [1] [min] | microsomal CLint [1] [µL/min/mg] | Remaining [1] | Remaining (without cofactor) [1] | half-life [2] [min] | microsomal CLint [2] [µL/min/mg] | Remaining [2] | Remaining (without cofactor) [2] | CLint [2] [µL/min/mg] | T1/2 [2] [min] | CLint [1] | T1/2 [1]
1 | CC(C)[C@H](Nc1ncnc2[nH]ccc12)c1ccc2c(c1)NC(=O)CO2 | 160 | 10 | 86% | 95% | 45.1 | 37 | 54% | 89% | – | – | – | –
2 | C[C@H](C(=O)O)[C@@H](NC(=O)c1ncnc2[nH]ccc12)c1ccc(Br)cc1 | 574 | 3 | 92.211% | 101.611% | 380 | 4 | 111.226% | 100.245% | – | – | – | –
3 | CC(C)[C@H](Nc1ncnc2[nH]c(-c3cnn(CC(=O)N(C)C)c3)cc12)c1ccc2c(c1)OCCO2 | 3.3 | 500 | 0% | 115% | 48.1 | 35 | 54% | 102% | – | – | – | –
4 | CC(C)[C@@H](Nc1ncnc2[nH]c(-c3ccc4nnn(C)c4c3)cc12)c1ccc2c(c1)S(=O)(=O)CCC2 | 2.2 | 752 | 0% | 93% | 7.6 | 219 | 3% | 93% | – | – | – | –
5 | CNC(=O)c1cc2c(N[C@@H](c3ccc4c(c3)NC(=O)CO4)C(C)C)ncnc2[nH]1 | – | – | – | 94% and 96% | 84.4 | 20 | 71% and 57% | 103% and 99% | 33 | 51.2 | – | –
6 | O=C(Nc1cccc2c(C(=O)N[C@@H]3c4ccccc4C[C@@H]3C(=O)O)c[nH]c12)NC1CC1 | 280 | 6 | 88% | 86% | 454 | 4 | 95% | 105% | – | – | – | –
7 | CCNC(=O)c1cc2c(N[C@H](c3ccc4c(c3)OCCO4)C(C)C)ncnc2[nH]1 | 24.8 | 67 | 32% | 100% | 34.6 | 48 | 47% | 94% | – | – | – | –
8 | CCNC(=O)c1cc2c(N[C@H](c3ccc4c(c3)S(=O)(=O)CCC4)C(C)C)ncnc2[nH]1 | 15.4 | 109 | 17% | 102% | 26.3 | 64 | 34% | 97% | – | – | – | –
9 | CC(C)[C@@H](Nc1ncnc2[nH]c(-c3cnn(CC(=O)N(C)C)c3)cc12)c1ccc2c(c1)OCCO2 | 11.8 | 142 | 9% and 18% | 110% and 114% | 28.1 | 59 | 39% and 48% | 98% and 114% | 45 | 36.8 | 108 µL/min/mg | 15.4 min
10 | CC(C)[C@@H](Nc1ncnc2[nH]c(-c3cnn(C)c3)cc12)c1ccc2c(c1)S(=O)(=O)CCC2 | – | – | 10% and 0% | 102% and 105% | 10.8 | 155 | 7% and 10% | 102% | 140 | 11.9 | 141 µL/min/mg and 405 µL/min/mg | 11.9 min and 4.1 min
11 | CC(C)[C@H](Nc1ncnc2[nH]c(-c3cnn(C)c3C#N)cc12)c1ccc2c(c1)S(=O)(=O)CCC2 | 1.8 | 935 | 0% | 101% | 5.4 | 311 | 1% | 90% | – | – | – | –
